Test results taken from article PMC7449215, “Caspofungin Weight-Based Dosing Supported by a Population Pharmacokinetic Model in Critically Ill Patients” (Antimicrobial Agents and Chemotherapy, 2020).

Tests used:
[1] = critically ill patients; cited from earlier work
Description: It has been shown in healthy adults that with increasing weight, both V and clearance (CL) increase ([17]). […] Other models have also included weight as a covariate and obtained similar results ([10], [18]). Furthermore, Nguyen et al. described that caspofungin exposure was influenced by albumin concentration and body weight ([19]). During our model development, albumin was also tested ...

[2] = cited from earlier work
From the text: This study has some limitations. […] As caspofungin is highly protein bound (∼97%), the extent of protein binding can change in ICU patients, and the measurement of unbound fractions may be useful; however, drug assessment can be difficult, as small absolute errors translate into large relative errors in highly protein-bound drugs ([26], [27]). Second, the PK/PD target for AUC is not well established in clinical trials, and the currently used targets are based on murine model ...

[3] = two-compartment population pharmacokinetic model (Pmetrics NPAG) in critically ill ICU patients; format: in vivo, human; conditions: 20 ICU patients
Description: This study included data from a prospective study in 20 adult critically ill patients admitted to an ICU with suspected invasive candidiasis and treated with caspofungin ([6]). For more details about the study population, see our previous publication ([6]).
All patients received a loading dose of 70 mg on the first day of treatment. The subsequent dose was 50 mg for patients weighing ≤80 kg, 70 mg for patients weighing >80 kg, and 35 mg and 50 mg, respectively, for patients with moderate hepatic impairment (Child-Pugh score of 7 to 9) ([8]). Caspofungin was administered as a 1-h infusion.
As the steady state for caspofungin is reached on the second day after the loading dose, blood sampling was performed on day 3 (range, 2 to 4) ([22]). […] The rationale for this target is described in detail in our previous publication ([6]). The sampling was performed before the administration and 1, 2, 3, 4, 6, 8, 12, and 24 h after the start of the caspofungin infusion. Caspofungin plasma concentrations were measured using a validated liquid chromatography-tandem mass spectrometry assay ([30]).
The pharmacokinetic modeling, probability of target attainment, and visual predictive checks were performed using the nonparametric adaptive grid program (NPAG) in Pmetrics (version 1.5.2) for R (version 3.6.1) (Laboratory of Applied Pharmacokinetics and Bioinformatics, Los Angeles, CA) ([16]).
The covariate selection was performed using the PMstep command of Pmetrics. Each covariate was tested in a linear regression analysis on pharmacokinetic parameters to see if there was a significant effect on AIC value (P < 0.05). […] The covariates, tested with a forward addition method, were weight, age, gender, concomitant administration of prednisolone/hydrocortisone, dialysis, aspartate aminotransferase (AST), alanine aminotransferase (ALT), gamma-glutamyl transpeptidase (GGT), bilirubin, albumin, C-reactive protein, leukocyte count, and simplified acute physiology score (SAPS 3).
The models were analyzed and compared using individual and population observed versus predicted goodness-of-fit plots, AIC, BIC, and −2 log likelihood. The prediction error was evaluated using bias (mean weighted prediction error) and imprecision (bias-adjusted mean weighted squared prediction error) for both the individual and population models. During the population modeling assay, error (standard deviation) and environmental noise were considered. For this, we used error polynomials in the following equation: standard deviation = C0 + C1 × observed concentration. The value 0.05 was used for C0 and 0.08 for C1. Gamma multiplicative and lambda additive error models were tested to estimate residual error ([12], [31]).

[4] = doses of up to 200 mg daily for an extended period of time; cited from earlier work

## CC[C@H](C)C[C@H](C)CCCCCCCCC(=O)N[C@H]1C[C@@H](O)[C@@H](NCCN)NC(=O)[C@@H]2[C@@H](O)CCN2C(=O)[C@H]([C@H](O)CCN)NC(=O)[C@H]([C@H](O)[C@@H](O)c2ccc(O)cc2)NC(=O)[C@@H]2C[C@@H](O)CN2C(=O)[C@H]([C@@H](C)O)NC1=O [caspofungin]
[1]
  CL: 0.54 L/h
  V: 7.03 L
[2]
  protein bound: ~97%
[3]; 1-h infusion, plasma LC-MS/MS, final two-compartment model
  Ke, elimination rate constant, mean: 0.09 h⁻¹
[3]; final model, V = V0 · weight/78
  V0, volume of distribution, median: 7.20 L/kg
[3]; final two-compartment model
  Ke, elimination rate constant, median: 0.08 h⁻¹
  kcp, rate constant central to peripheral compartment, mean: 0.44 h⁻¹
  kcp, rate constant central to peripheral compartment, median: 0.28 h⁻¹
  kpc, rate constant peripheral to central compartment, mean: 0.46 h⁻¹
  kpc, rate constant peripheral to central compartment, median: 0.34 h⁻¹
[4]
  tolerability: good tolerability was observed, with no described dose-limiting toxicity
